Data on 30 molecules can be found in US11267811B2, “Small molecule inhibitors of galectin-3” (BRISTOL-MYERS SQUIBB COMPANY, priority 2017, dated 2022).

The target in the first test is His-tagged recombinant human Gal-3 (hGal-3) (Homo sapiens (Human), UniProt P17931). As to the kind of experiment: Gal-3 HTRF assay (His-tagged hGal-3 binding to B-ASF).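 Also: compounds preincubated 30 min with hGal-3, then 1 h with B-ASF, detection via terbium anti-His antibody and streptavidin d2. Control with B-ASF counts as full signal, omitting B-ASF as background.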 The settings on record: HTRF, hGal-3 15 nM, B-ASF 15 nM; read-out: hGal-3 IC50.
His-tagged recombinant human Gal-3 (hGal-3), sequence (P17931 whole entry): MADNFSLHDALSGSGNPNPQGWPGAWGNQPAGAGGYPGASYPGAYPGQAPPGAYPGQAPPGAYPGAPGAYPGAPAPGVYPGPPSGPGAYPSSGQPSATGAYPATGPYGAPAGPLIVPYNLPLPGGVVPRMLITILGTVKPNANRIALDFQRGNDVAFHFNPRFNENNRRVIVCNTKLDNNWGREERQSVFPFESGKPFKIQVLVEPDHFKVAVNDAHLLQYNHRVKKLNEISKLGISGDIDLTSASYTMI
`OC[C@H]1O[C@@H](c2nncn2-c2ccc3cn[nH]c3c2)[C@H](O)[C@@H](n2cc(-c3cc(F)c(F)c(F)c3)nn2)[C@H]1O` [Example 164]: the IC50 amounted to 630 nM.
On the same count and under the same terms, for `Cn1c(=O)sc2cc(-n3cnnc3[C@@H]3O[C@H](CO)[C@H](O)[C@H](n4cc(-c5cc(F)c(F)c(F)c5)nn4)[C@H]3O)ccc21` [Example 136] the value was 310 nM; for `O=[N+]([O-])c1cccc(-n2ncnc2[C@@H]2O[C@H](CO)[C@H](O)[C@H](n3cc(-c4cc(F)c(F)c(F)c4)nn3)[C@H]2O)c1` [Example 35], 700 nM; for `OC[C@H]1O[C@@H](c2nncn2-c2ccc(Br)cc2)[C@H](O)[C@@H](n2cc(-c3cc(F)c(F)c(F)c3)nn2)[C@H]1O` [Example 88], 360 nM.
The same measure, in the same setting: for `Cc1nc2ccc(-n3ncnc3[C@@H]3O[C@H](CO)[C@H](O)[C@H](n4cc(-c5cc(F)c(Cl)cc5F)nn4)[C@H]3O)cc2s1` [Example 222] the value was 240 nM; for `Cc1nc2ccc(-n3ncnc3[C@H]3C[C@@H](n4cc(-c5cc(F)c(F)c(F)c5)nn4)[C@@H](O)[C@@H](CO)O3)cc2s1` [Example 176], 40 nM.
As for `OC[C@H]1O[C@@H](n2nncc2-c2ccc(Cl)c(Cl)c2)C[C@@H](n2cc(-c3cc(F)c(F)c(F)c3)nn2)[C@H]1O` [Example 15, (2R,3R,4R,6R)-6-(5-(3,4-dichlorophenyl)-1H-1,2,3-triazol-1-yl)-2-(hydroxymethyl)-4-(4-(3,4,5-trifluorophenyl)-1H-1,2,3-triazol-1-yl)tetrahydro-2H-pyran-3-ol], the IC50 stood at 880 nM.
As to `OC[C@H]1O[C@@H](c2nncn2-c2cc(Cl)ccc2Cl)[C@H](O)[C@@H](n2cc(-c3cc(F)c(F)c(F)c3)nn2)[C@H]1O` [Example 135], the IC50 was found to be 30 nM.
Take `Cc1nc([C@@H]2O[C@H](CO)[C@H](O)[C@H](n3cc(-c4cc(F)c(F)c(F)c4)nn3)[C@H]2O)n(-c2cc(F)ccc2C(F)(F)F)n1` [Example 71]: the IC50 worked out at 90 nM.
In the case of `Cc1nc([C@@H]2O[C@H](CO)[C@H](O)[C@H](n3cc(-c4cccc(F)c4)nn3)[C@H]2O)oc1C(=O)O` [Example 301, 2-((2R,3R,4S,5R,6R)-4-(4-(3-fluorophenyl)-1H-1,2,3-triazol-1-yl)-3,5-dihydroxy-6-(hydroxymethyl)tetrahydro-2H-pyran-2-yl)-4-methyloxazole-5-carboxylic acid], the IC50 was 6350 nM.
As to `CCc1nc([C@@H]2O[C@H](CO)[C@H](O)[C@H](n3cc(-c4cc(F)c(F)c(F)c4)nn3)[C@H]2O)n(-c2ccc3nc(C)sc3c2)n1` [Example 267], the IC50 was found to be 60 nM.
For the molecule `Cc1cccc(-n2ncnc2[C@@H]2O[C@H](CO)[C@H](O)[C@H](n3cc(-c4cc(F)c(F)c(F)c4)nn3)[C@H]2O)c1` [Example 26], the IC50 was 230 nM.
On to `Cn1ncc(-c2cccc(Cl)c2)c1[C@@H]1O[C@H](CO)[C@H](O)[C@H](n2cc(-c3cc(F)c(F)c(F)c3)nn2)[C@H]1O` [Example 287, (2S,3R,4R,5R,6R)-2-(4-(3-chlorophenyl)-1-methyl-1H-pyrazol-5-yl)-6-(hydroxymethyl)-4-(4-(3,4,5-trifluorophenyl)-1H-1,2,3-triazol-1-yl)tetrahydro-2H-pyran-3,5-diol], for which the IC50 came out at 10000 nM.
For the molecule `OC[C@H]1O[C@@H](c2ncnn2[C@@H]2CCCC[C@H]2O)[C@H](O)[C@@H](n2cc(-c3cc(F)c(F)c(F)c3)nn2)[C@H]1O` [Example 171], the IC50 was 2020 nM.
As for `CS(=O)(=O)c1cc(-n2cnnc2[C@@H]2O[C@H](CO)[C@H](O)[C@H](n3cc(-c4cc(F)c(F)c(F)c4)nn3)[C@H]2O)ccc1F` [Example 129], the IC50 is 600 nM.
As to `COc1cc(-n2cnnc2[C@@H]2O[C@H](CO)[C@H](O)[C@H](n3cc(-c4cc(F)c(F)c(F)c4)nn3)[C@H]2O)ccn1` [Example 133], the half-maximal inhibitory concentration (IC50) was 200 nM.
`Cn1ncc2ccc(-n3cnnc3[C@@H]3O[C@H](CO)[C@H](O)[C@H](n4cc(-c5cc(F)c(F)c(F)c5)nn4)[C@H]3O)cc21` [Example 166]: the IC50 worked out at 150 nM.
Same read-out and setting: under `COc1ccc([C@@H]2O[C@H](CO)[C@H](O)[C@H](n3cc(-c4cc(F)c(F)c(F)c4)nn3)[C@H]2O)cc1` [Example 292, (2R,3R,4R,5R,6S)-2-(hydroxymethyl)-6-(4-methoxyphenyl)-4-(4-(3,4,5-trifluorophenyl)-1H-1,2,3-triazol-1-yl)tetrahydro-2H-pyran-3,5-diol] stands 10000 nM; under `OC[C@H]1O[C@@H](n2nncc2-c2cccc(Cl)c2)[C@H](F)[C@@H](n2cc(-c3cc(F)c(F)c(F)c3)nn2)[C@H]1O` [Example 18, (2R,3R,4S,5R,6R)-6-(5-(3-chlorophenyl)-1H-1,2,3-triazol-1-yl)-5-fluoro-2-(hydroxymethyl)-4-(4-(3,4,5-trifluorophenyl)-1H-1,2,3-triazol-1-yl)tetrahydro-2H-pyran-3-ol], 1040 nM.
Turning to `Cc1nc2ccc(-n3c([C@H]4C[C@@H](n5cc(-c6cc(F)c(F)c(F)c6)nn5)[C@@H](O)[C@@H](CO)O4)nnc3C(F)(F)F)cc2s1` [Example 281, (2R,3R,4R,6R)-2-(hydroxymethyl)-6-(4-(2-methylbenzo[d]thiazol-6-yl)-5-(trifluoromethyl)-4H-1,2,4-triazol-3-yl)-4-(4-(3,4,5-trifluorophenyl)-1H-1,2,3-triazol-1-yl)tetrahydro-2H-pyran-3-ol], the IC50 is 80 nM.
Same read-out and setting: under `OC[C@H]1O[C@@H](n2nncc2-c2ccc(Cl)cc2)[C@H](O)[C@@H](n2cc(-c3cc(F)c(F)c(F)c3)nn2)[C@H]1O` [Example 7] stands 329 nM; under `NS(=O)(=O)c1ccc(-n2cnnc2[C@@H]2O[C@H](CO)[C@H](O)[C@H](n3cc(-c4cc(F)c(F)c(F)c4)nn3)[C@H]2O)cc1` [Example 116], 670 nM.
Turning to `COC(=O)c1cc2ccc(-n3cnnc3[C@@H]3O[C@H](CO)[C@H](O)[C@H](n4cc(-c5cc(F)c(F)c(F)c5)nn4)[C@H]3O)cc2s1` [Example 163], the IC50 amounted to 220 nM.

Staying with this test, now noted: read-out: hGal3 IC50.
Regarding `CCOC(=O)c1nnc([C@@H]2O[C@H](CO)[C@H](O)[C@H](n3cc(-c4cc(F)c(F)c(F)c4)nn3)[C@H]2O)n1-c1ccc2nc(C)sc2c1` [Example 275], the concentration for half-maximal inhibition (IC50) was 60 nM.
With `OC[C@H]1O[C@@H](c2oncc2-c2cccc(Cl)c2)[C@H](O)[C@@H](n2cc(-c3cc(F)c(F)c(F)c3)nn2)[C@H]1O` [Ex 289], the IC50 turned out to be 8100 nM.
Turning to `Cc1nc2ccc(-n3ncnc3[C@@H]3O[C@H](CO)[C@H](O)[C@H](n4cc(-c5cc(F)cc(C(F)(F)F)c5)nn4)[C@H]3O)cc2s1` [Example 228], the IC50 was 420 nM.
Turning to `Cc1nc2ccc(-n3ncnc3[C@@H]3O[C@H](CO)[C@H](O)[C@H](n4cc(-c5ccc(N(C)C)c(F)c5)nn4)[C@H]3O)cc2s1` [Example 206], the IC50 was 1540 nM.
For `Cc1nc2ccc(-n3ncnc3[C@@H]3O[C@H](CO)[C@H](O)[C@H](n4cc(-c5ccc(N(C)S(C)(=O)=O)c(F)c5)nn4)[C@H]3O)cc2s1` [Example 208], the IC50 amounted to 3820 nM.

Staying with this test, now noted: read-out: hGal IC50.
`Cc1nc([C@@H]2O[C@H](CO)[C@H](O)[C@H](n3cc(-c4ccc(F)c(Cl)c4)nn3)[C@H]2O)n(-c2cc(Cl)ccc2C(F)(F)F)n1` [Example A50]: the IC50 amounted to 52 nM.
Consider `Cc1nc([C@@H]2O[C@H](CO)[C@H](O)[C@H](n3cc(-c4c(F)cc(Cl)cc4F)nn3)[C@H]2O)n(-c2cc(Cl)ccc2C(F)(F)F)n1` [Example A69], for which the IC50 stood at 56 nM.
